Data taken from patent US12383535B2, “Hydrogen peroxide-responsive KEAP1-NRF2 ppi inhibitor prodrug, and preparation method therefor” (CHINA PHARMACEUTICAL UNIVERSITY, priority 2019, dated 2025).

Tests used:
[1] = Parallel artificial membrane permeability assay (PAMPA); type: in vitro ADME
Procedure: Potential solubility data were obtained with a pSOL model 3 instrument (pION INC, Cambridge, Massachusetts, USA). Cell membrane permeability was determined on a PAMPA Explorer instrument (pION).
Subsequently, the permeability of cell membranes was measured by standard parallel artificial membrane permeability assay (PAMPA).

[2] = Stability in artificial gastric and intestinal fluids (SGF, SIF); type: physicochemical; details: after 8 h
Procedure: (4) Stability in artificial gastric and intestinal fluids. Artificial gastric and intestinal fluids were purchased from commercial suppliers. Samples of prodrug (20 μM) were incubated in triplicate with artificial gastric or intestinal fluids at 37° C. for different periods of time. The enzyme protein was precipitated by adding methanol, and the samples were vortexed and then centrifuged at 5000 rpm for 5 min. The supernatants of the samples were analyzed by HPLC and the peak areas were recorded. All chromatographic conditions were as described above.

[3] = Stability in liver microsomes (human); type: in vitro ADME
Procedure: (3) Stability in microsomes. Isolated liver microsomes (from CD-1 male rats and human males) were used to evaluate the stability of the compound in microsomes in vitro. Ketanserin was used as a reference compound. A liver microsome solution (20 mg/mL) was added to a microcentrifuge tube containing PBS at 37° C. and the mixture was shaken for 10 min prior to assay. Then a DMSO solution (0.5 mM) containing the test compound was added. At 0 min, pre-cooled acetonitrile was added followed by an NADPH stock solution (6 mM). The plates were pre-incubated at 37° C. for 5 min. The timer started upon the addition of the NADPH stock solution (6 mM) to the plates. At 5 min, 15 min, 30 min and 45 min, pre-cooled acetonitrile was added to the wells of the respective plates to stop the reactions. After the reaction was quenched, the plates were shaken on a shaker for 10 min and then centrifuged at 5000 rpm for 15 min. The supernatant from each well was transferred to a 96-well sample plate containing ultrapure water for LC-MS/MS analysis.

[4] = test system: Nrf2/ARE luciferase reporter in HepG2-ARE-C8 cells; assay: ARE-luciferase activity assay; type: cell-based; details: no LPS (physiological conditions)
Procedure: HepG2-ARE-C8 cells were plated in a 96-well plate at a density of 4×10^4 cells/well and incubated overnight. The cells were then incubated with different concentrations of the test compound, with DMSO as a negative control and a luciferase cell lysis agent as a blank control. After 12 h of treatment, the medium was removed and 100 μL of pre-cooled PBS was added to each well to wash the cells. PBS was then removed and 30 μL of the luciferase cell lysis agent was added. After 15 min of lysis on ice, the cells were harvested and centrifuged, and 20 μL of the supernatant was taken for luciferase activity assay according to the protocol provided by the manufacturer (Promega, Madison, WI). The luciferase activity was measured by Luminoskan Ascent (Thermo Scientific, USA). The assay was performed in triplicate and the inductivity fold was calculated by comparing with the control.

[5] = test system: Nrf2-ARE-driven gene transcription in RAW264.7 cells; assay: Real-time quantitative PCR of Nrf2, HO-1, NQO1 and GCLM; type: cell-based, mouse; details: 20 ng/mL LPS 8 h, compound 500 nM
Procedure: The procedures were performed according to the real-time quantitative RT-PCR experimental procedures reported previously (Z. Jiang, M. Lu, Q. D. You, Discovery and Development of Kelch-like ECH-Associated Protein 1: Nuclear Factor Erythroid 2-Related Factor 2 (KEAP1:NRF2) Protein-Protein Interaction Inhibitors: Achievements, Challenges and Future Directions, J. Med. Chem., 59 (2016) 10837-10858). The primers used for qRT-PCR were as follows: Nrf2 (forward primer: AACCACCCTGAAAGCACGC, reverse primer: […]); HO-1 (forward primer: […], reverse primer: […]); NQO-1 (forward primer: CGCAGACCTT-GTGATATTCCAG, reverse primer: […]); GCLM (forward primer: […], reverse primer: […]).
To determine the effect of pro2 on Nrf2-ARE-driven gene transcription, mRNA levels of Nrf2 and three downstream genes, HO-1, NQO1 and GCLM, were examined ((A) of FIG. 4 to (D) of FIG. 4). […] The protein levels of the above genes were determined by western blot.

[6] = test system: RAW264.7 cells; assay: Antioxidant capacity assays (SOD, GSH-Px, GSH/GSSG, MPO); type: cell-based, mouse
Text: Subsequently, to investigate the effect of pro2 on antioxidant capacity in inflammatory conditions, the activities of superoxide dismutase (SOD) and glutathione peroxidase (GPx) were examined. […] In addition, the GSH/GSSG ratio and myeloperoxidase (MPO) activity were also examined, which are two important markers indicating oxidative stress.

[7] = test system: IL-1β and IL-6 protein in RAW264.7 cells; assay: Western blot of IL-1β and IL-6 protein levels; type: cell-based, mouse; details: same concentration
Procedure: Anti-Nrf2 (ab62352) and anti-IL-1β (ab45692) antibodies were purchased from Abcam Technology (England). Anti-HO-1 (SC-136960) and anti-NQO1 (SC-271116) antibodies were purchased from Santa Cruz Biotechnology (California, USA). Anti-β-Actin (60008-1-Ig) and anti-GCLM (14241-1-AP) antibodies were purchased from Proteintech Group (USA). Cell sampling and western blot were performed as previously reported (M.-C. Lu, J.-A. Ji, Y.-L. Jiang, Z.-Y. Chen, Z.-W. Yuan, Q.-D. You, Z.-Y. Jiang, An inhibitor of the Keap1-Nrf2 protein-protein interaction protects NCM460 colonic cells and alleviates experimental colitis, Sci. Rep., 6 (2016) 26585).

[8] = In vivo pharmacokinetic study; set-up: species or system SD rats; details: rat
Procedure: Six male SD rats weighing about 260 g were used, with 3 rats for PO study and the other 3 rats for IV study. The test compound was dissolved in normal saline with a cosolvent to prepare a solution before the study. For the PO study, animals were administered orally (10 mg/kg). […] Blood was sampled at 0.0833, 0.25, 0.5, 1, 2, 4, 6, 8, 24 h in groups IV and PO. The blood samples were preserved on ice and then centrifuged at 2000 rpm and 4° C. for 10 min for separating plasma. The plasma samples were transferred and stored at −80° C. before analysis by LC-MS/MS.

Pe at pH 7.4 [1]: 6.35 10^−6 cm/s
Papp ([1]; pH 7.4, read-out: Pe at pH 7.4): 6.35 ×10⁻⁶ cm/s
remaining in simulated gastric fluid (SGF) ([2]; SGF): > 50%
remaining in simulated intestinal fluid (SIF) ([2]; SIF): > 50%
stability in co-incubation with human liver microsomes [3]: very stable
AUC0-t ([8]; I.V. 2 mg/kg): 1842 ± 363 ng·h/mL
AUC0-∞ ([8]; I.V. 2 mg/kg): 1854 ± 366 ng·h/mL
Cl_F ([8]; I.V. 2 mg/kg): 18.5 ± 3.9 mL/min/kg
MRT ([8]; I.V. 2 mg/kg): 1.25 ± 0.30 h
T1/2 ([8]; I.V. 2 mg/kg): 4.41 ± 3.01 h
Vz_F ([8]; I.V. 2 mg/kg): 6.44 ± 4.09 L/kg
AUC0-t ([8]; P.O. 10 mg/kg): 6203 ± 248 ng·h/mL
AUC0-∞ ([8]; P.O. 10 mg/kg): 6315 ± 273 ng·h/mL
Cl_F ([8]; P.O. 10 mg/kg): 26.4 ± 1.14 mL/min/kg
Cmax ([8]; P.O. 10 mg/kg): 2753 ± 15.3 ng/mL
MRT ([8]; P.O. 10 mg/kg): 1.82 ± 0.35 h
T1/2 ([8]; P.O. 10 mg/kg): 2.09 ± 0.93 h
Tmax ([8]; P.O. 10 mg/kg): 0.67 ± 0.29 h
Vz_F ([8]; P.O. 10 mg/kg): 4.79 ± 2.17 L/kg
bioavailability ([8]; oral): 68.1%
SMILES: COc1ccc(S(=O)(=O)Nc2ccc(N(CC(=O)N3CCSC3=O)S(=O)(=O)c3ccc(OC)cc3)c3ccccc23)cc1 [pro2]
ARE inductivity [4]: remained almost inactive even at the highest concentration
transcription of Nrf2, HO-1, NQO1 and GCLM (mRNA) [5]: greatly enhanced the transcription
SOD and GSH-Px activity ([6]; LPS 20 ng/mL): restored the SOD and GSH-Px activity significantly
GSH/GSSG ratio and MPO activity ([6]; LPS exposure): return markers to near normal
LPS-induced IL-1β and IL-6 protein expression [7]: almost completely inhibited
